Results published in BindingDB's records for doi:10.1021/jm00169a008 (Tsukuba Research Laboratories, 1990).
Counter-ions that a name gives are not always drawn.

Molecular target: T1, Acetylcholinesterase (Mus musculus, UniProt P21836)
T1 sequence (P21836 whole entry): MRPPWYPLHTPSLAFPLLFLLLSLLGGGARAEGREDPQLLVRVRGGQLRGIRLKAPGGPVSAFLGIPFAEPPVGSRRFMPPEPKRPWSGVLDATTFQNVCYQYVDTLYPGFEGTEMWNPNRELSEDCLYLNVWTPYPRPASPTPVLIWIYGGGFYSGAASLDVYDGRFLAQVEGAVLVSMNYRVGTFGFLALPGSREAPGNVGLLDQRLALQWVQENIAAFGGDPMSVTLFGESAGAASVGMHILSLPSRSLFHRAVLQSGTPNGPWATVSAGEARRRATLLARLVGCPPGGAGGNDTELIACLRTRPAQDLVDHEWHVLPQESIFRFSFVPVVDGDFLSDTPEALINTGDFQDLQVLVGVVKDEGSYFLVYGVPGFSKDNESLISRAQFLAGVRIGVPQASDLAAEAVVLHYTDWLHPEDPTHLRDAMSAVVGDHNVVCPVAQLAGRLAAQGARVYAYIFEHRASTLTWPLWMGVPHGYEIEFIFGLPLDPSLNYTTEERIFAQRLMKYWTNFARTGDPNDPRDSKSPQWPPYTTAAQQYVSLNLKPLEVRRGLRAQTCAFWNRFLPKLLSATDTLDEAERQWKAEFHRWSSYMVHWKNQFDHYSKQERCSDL
Assay: Enzyme Inhibition Assay

Compound	IC50
Cc1cccc(CN2CCC(CCN(C)C(=O)c3ccccc3)CC2)c1	0.145 µM
CN(CCC1CCNCC1)C(=O)c1ccccc1 [(2E)-but-2-enedioic acid; N-methyl-N-[2-(piperidin-4-yl)ethyl]benzamide]	26 µM
CN(CCC1CCN(C(=O)c2ccccc2)CC1)C(=O)c1ccccc1 [N-[2-(1-benzoylpiperidin-4-yl)ethyl]-N-methylbenzamide]	52 µM
Cc1ccccc1CN1CCC(CCN(C)C(=O)c2ccccc2)CC1 [N-methyl-N-(2-{1-[(2-methylphenyl)methyl]piperidin-4-yl}ethyl)benzamide hydrochloride]	0.77 µM
CN(CCC1CCN(Cc2cccc([N+](=O)[O-])c2)CC1)C(=O)c1ccccc1 [N-methyl-N-(2-{1-[(3-nitrophenyl)methyl]piperidin-4-yl}ethyl)benzamide hydrochloride]	0.37 µM
CN(CCC1CCN(Cc2ccc([N+](=O)[O-])cc2)CC1)C(=O)c1ccccc1 [N-methyl-N-(2-{1-[(4-nitrophenyl)methyl]piperidin-4-yl}ethyl)benzamide hydrochloride]	3.3 µM
CN(CCC1CCN(CCc2ccccc2)CC1)C(=O)c1ccccc1 [N-methyl-N-{2-[1-(2-phenylethyl)piperidin-4-yl]ethyl}benzamide hydrochloride]	13 µM
